{
  "source": "patent US4761414A",
  "about": "“Substituted 1H-pyrimido[1,2-a-]-pyrido[3,4-e]pyrazine 6 oxides” (G. D. Searle & Co., priority 1986, dated 1988)",
  "key": {"[1]": {"tested_on": "Campylobacter fetus ss. jejuni ATCC 29428", "experiment": "MIC vs panel of anaerobes", "assay_type": "cell-based", "conditions": "ATCC29428, procedures of Example 40"}, "[2]": {"tested_on": "B. melanogenicus ATCC 15032", "experiment": "MIC vs panel of anaerobes", "assay_type": "cell-based", "conditions": "procedures of Example 40"}, "[3]": {"tested_on": "Clostridium perfringens NCTC 523", "experiment": "microbe, parasite or virus in culture", "assay_type": "cell-based", "conditions": "Clostridium perfringens NCTC 523; procedures of Example 40; bishydrochloride"}, "[4]": {"tested_on": "P. anaerobius", "experiment": "MIC vs panel of anaerobes", "assay_type": "cell-based", "conditions": "Peptostreptococcus anaerobius, procedures of Example 40"}, "[5]": {"tested_on": "Fusobacterium necrophorum ATCC 11295", "experiment": "MIC vs panel of anaerobes", "assay_type": "cell-based", "conditions": "Fusobacterium necrophorum ATCC 11295; procedures of Example 40; bishydrochloride"}, "[6]": {"tested_on": "B. fragilis 23745", "conditions": "p.o., after infection and twice daily for 2 days; log CFU/ml liver homogenate; test compound; bishydrochloride"}, "[7]": {"tested_on": "Campylobacter fetus ss. jejuni NCTC 10842", "experiment": "MIC vs panel of anaerobes", "assay_type": "cell-based", "conditions": "NCTC10842, procedures of Example 40"}, "[8]": {"tested_on": "Clostridium perfringens NCTC 8237", "experiment": "microbe, parasite or virus in culture", "assay_type": "cell-based", "conditions": "Clostridium perfringens NCTC 8237; procedures of Example 40; bishydrochloride"}, "[9]": {"tested_on": "Costridium difficile NCIB 10666", "experiment": "MIC vs panel of anaerobes", "assay_type": "cell-based, C. difficile", "conditions": "procedures of Example 40"}, "[10]": {"tested_on": "B. fragilis NCTC 10581", "experiment": "MIC/MBC against Bacteroides fragilis strain A (96-well microtitre plates, anaerobic chamber)", "assay_type": "cell-based", "conditions": "for MBC / MIC: Bacteroides fragilis; for MBC: NCTC10581, 99.9% reduction in viable count; for MIC: NCTC10581, 48 h", "protocol": "(§1) The screening panel utilized in this Example consisted of 5 strains of Bacteroides fragilis. All assays were carried out in 96-well microtitre plates. If an isolate was obtained from either a culture collection or clinical source, the isolate was immediately inoculated into Wilkens-Chalgren broth (Oxoid) and incubated at 37° C. in an anaerobic chamber in an atmosphere of 85% nitrogen, 10% carbon dioxide, and 5% hydrogen for 48 hours. At the end of this time, the viable count was about 10^12 organisms/ml broth. A 1 ml aliquot of each culture was placed in an ampoule and quick frozen in acetone-dry ice mixture and stored in liquid nitrogen. When an inoculum was utilized in an assay, one of the ampoules was thawed and diluted with fresh broth to yield a suspension having a count of 5×10^5 organisms/ml. A 100 μl aliquot of this suspension was inoculated into each well of the microtitre plate. A 2 mg sample of the test compound was dissolved in 0.2 ml of a suitable solvent such as dimethylsulfoxide, polyethylene glycol 200 or methanol. […] After addition of the test solution the final inoculum level was 10^5 cells/ml. The plates were incubated for 48 hours at 37° C. in the anaerobic chamber. The Minimum Inhibitory Concentration (MIC) was read visually. The MIC is defined as the lowest concentration at which there is no detectable growth. The Minimum Bactericidal Concentration (MBC) was determined by taking 50 μl aliquot from each well and placing it in fresh medium. […] The strains of Bacteroides fragilis utilized in the above procedure are identified by letter in accordance with the following legend: |A B. fragilis NCTC 10581"}, "[11]": {"tested_on": "Peptococcous magnus", "experiment": "MIC vs panel of anaerobes", "assay_type": "cell-based", "conditions": "procedures of Example 40"}, "[12]": {"tested_on": "Peptostreptococcus", "experiment": "MIC vs panel of anaerobes", "assay_type": "cell-based", "conditions": "procedures of Example 40"}, "[13]": {"tested_on": "B. fragilis WS-1", "experiment": "MIC/MBC against Bacteroides fragilis strain E", "assay_type": "cell-based", "protocol": "as §1, with “|E” for “|A”, “WS-1*” for “NCTC 10581”"}, "[14]": {"tested_on": "B. fragilis MZ-R ATCC 11295", "experiment": "MIC/MBC against Bacteroides fragilis strain D", "assay_type": "cell-based", "protocol": "The screening panel utilized in this Example consisted of 5 strains of Bacteroides fragilis. All assays were carried out in 96-well microtitre plates. If an isolate was obtained from either a culture collection or clinical source, the isolate was immediately inoculated into Wilkens-Chalgren broth (Oxoid) and incubated at 37° C. in an anaerobic chamber in an atmosphere of 85% nitrogen, 10% carbon dioxide, and 5% hydrogen for 48 hours. At the end of this time, the viable count was about 10^12 organisms/ml broth. A 1 ml aliquot of each culture was placed in an ampoule and quick frozen in acetone-dry ice mixture and stored in liquid nitrogen. When an inoculum was utilized in an assay, one of the ampoules was thawed and diluted with fresh broth to yield a suspension having a count of 5×10^5 organisms/ml. A 100 μl aliquot of this suspension was inoculated into each well of the microtitre plate. A 2 mg sample of the test compound was dissolved in 0.2 ml of a suitable solvent such as dimethylsulfoxide, polyethylene glycol 200 or methanol. […] After addition of the test solution the final inoculum level was 10^5 cells/ml. The plates were incubated for 48 hours at 37° C. in the anaerobic chamber. The Minimum Inhibitory Concentration (MIC) was read visually. The MIC is defined as the lowest concentration at which there is no detectable growth. The Minimum Bactericidal Concentration (MBC) was determined by taking 50 μl aliquot from each well and placing it in fresh medium."}, "[15]": {"tested_on": "B. fragilis NCTC 9343", "experiment": "MIC/MBC against Bacteroides fragilis strain B", "assay_type": "cell-based", "protocol": "as §1, with “|B” for “|A”, “9343” for “10581”"}, "[16]": {"tested_on": "B. fragilis NCTC 9344", "experiment": "MIC/MBC against Bacteroides fragilis strain C", "assay_type": "cell-based", "protocol": "as §1, with “|C” for “|A”, “9344” for “10581”"}},
  "note": "Where a name gives a salt, the structure may show the parent alone. Read-outs that look alike come from different tables or passages of the source.",
  "data": [
    {"compound": "CC1(C)CN=C2C(c3ccccc3)=[N+]([O-])c3cccnc3N2C1", "note": "[Example 39, 2,3-dihydro-2,2-dimethyl-5-phenyl-1H-pyrimido[1,2-a]pyrido[3,2-e]pyrazine 6-oxide bishydrochloride]", "values": [
      {"measurement": "MIC", "setting": "[1]", "value": 50, "unit": "µg/mL"},
      {"measurement": "MIC", "setting": "[2]", "value": 100, "unit": "µg/mL"},
      {"measurement": "MIC", "setting": "[3]", "value": 1.5, "unit": "µg/mL"},
      {"measurement": "MIC", "setting": "[4]", "value": 100, "unit": "µg/mL"},
      {"measurement": "MIC", "setting": "[5]", "value": 1.5, "unit": "µg/mL"},
      {"measurement": "DOSE GIVING 1 LOG REDUCTION", "setting": "[6]", "value": 0.7, "unit": "mg/kg"},
      {"measurement": "DOSE GIVING 1 LOG REDUCTION (molar)", "setting": "[6]", "value": 1.8, "unit": "μM/Kg"},
      {"measurement": "MIC", "setting": "[7]", "value": 25, "unit": "µg/mL"},
      {"measurement": "MIC", "setting": "[8]", "value": 6.2, "unit": "µg/mL"},
      {"measurement": "MIC", "setting": "[9]; C. difficile NCIB 10666, bishydrochloride", "value": 1.5, "unit": "µg/mL"}
    ]},
    {"compound": "Cc1ncc([N+](=O)[O-])n1CCO", "note": "[Metronidazole, metronidazole, reference compound]", "values": [
      {"measurement": "MBC, strain A", "setting": "[10]; 99.9% reduction in viable count", "value": 1.5, "unit": "µg/mL"},
      {"measurement": "MIC, strain A", "setting": "[10]; 48 hours, 37° C., anaerobic", "value": 1.5, "unit": "µg/mL"},
      {"measurement": "MBC", "setting": "[10]", "value": "< 0.8", "unit": "µg/mL"},
      {"measurement": "MIC", "setting": "[10]; 48 hours, 37° C., anaerobic", "value": "< 0.8", "unit": "µg/mL"},
      {"measurement": "MIC", "setting": "[7]", "value": 3.1, "unit": "µg/mL"},
      {"measurement": "MIC", "setting": "[11]", "value": "< 0.8", "unit": "µg/mL"},
      {"measurement": "MIC", "setting": "[12]", "value": 100, "unit": "µg/mL"},
      {"measurement": "MIC", "setting": "[9]; Clostridioides difficile, NCIB10666, C. difficile NCIB 10666, read-out: MIC", "value": "< 0.8", "unit": "µg/mL"}
    ]},
    {"compound": "CCC1(C)CN=C2C(c3ccc(C)cc3)=[N+]([O-])c3cccnc3N2C1", "note": "(stereo not shown) [Example 35, 2,3-Dihydro-2-ethyl-2-methyl-5-(4-methylphenyl)-1H-pyrimido[1,2-a]pyrido[3,2-e]pyrazine 6-oxide]", "values": [
      {"measurement": "MBC", "setting": "[13]; WS1, 99.9% reduction in viable count", "value": "< 0.8", "unit": "µg/mL"},
      {"measurement": "MIC", "setting": "[13]; WS1, 48 h, 48 hours, 37° C., anaerobic", "value": "< 0.8", "unit": "µg/mL"},
      {"measurement": "MBC", "setting": "[14]; ATCC11295, 99.9% reduction in viable count", "value": "< 0.8", "unit": "µg/mL"},
      {"measurement": "MIC", "setting": "[14]; ATCC11295, 48 h, 48 hours, 37° C., anaerobic", "value": "< 0.8", "unit": "µg/mL"},
      {"measurement": "MBC", "setting": "[10]", "value": "< 0.8", "unit": "µg/mL"},
      {"measurement": "MIC", "setting": "[10]; 48 hours, 37° C., anaerobic", "value": "< 0.8", "unit": "µg/mL"},
      {"measurement": "MBC", "setting": "[15]; NCTC9343, 99.9% reduction in viable count", "value": "< 0.8", "unit": "µg/mL"},
      {"measurement": "MIC", "setting": "[15]; NCTC9343, 48 h, 48 hours, 37° C., anaerobic", "value": "< 0.8", "unit": "µg/mL"},
      {"measurement": "MBC", "setting": "[16]; NCTC9344, 99.9% reduction in viable count", "value": "< 0.8", "unit": "µg/mL"},
      {"measurement": "MIC", "setting": "[16]; NCTC9344, 48 h, 48 hours, 37° C., anaerobic", "value": "< 0.8", "unit": "µg/mL"}
    ]}
  ]
}
